Entries after “also recorded” stand apart in the source; their conditions may differ. Marks after values point to notes of the source that are not given here.
Legend:
3T3-L1 cells = assay: Adipogenesis screen; format: cell-based; conditions: 43 µM; positive = increase in adipogenesis by more than 5-fold of vehicle
Protocol: Adipogenesis screening was carried out essentially according to the method of Choi et al. […] Compounds that caused increase in adipogenesis by more than 5-fold of vehicle (0.1% DMSO) were considered positive and were selected for further screening.

[1] = tested on: insulin resistant 3T3 adipocytes; assay: Glucose uptake in dexamethasone-induced insulin resistant 3T3 adipocytes; format: cell-based
Protocol: Fully differentiated 3T3 adipocytes generated in 24-well plates were used after day 8 of differentiation. Insulin resistance was induced essentially as described before. Briefly, adipocytes were incubated with 100 nM dexamethasone for six consecutive days. […].
Glucose uptake was measured essentially according to the method of Gao et al using ^14C-labeled 2-deoxy glucose as the tracer. Activity in this assay is defined as a statistically significant increase in glucose uptake of minimum 50% compared to the uptake seen in cells exposed to vehicle. Effect of wortmannin on glucose uptake was studied according to the method of Hausdorff et al using 100 nM wortmannin.

[2] = tested on: adenosine mono phosphate activated kinase (AMPK); assay: AMPK activity (MDS Pharma); format: biochemical
Protocol: (§1) Transactivation activity against human PPARγ and PPARα receptors was determined using luciferase reporter gene assays in the Laboratory of CloneGen Biotechnology, Michigan, USA. Activities of protein tyrosine phosphatase-1b (PTP-1B) and adenosine mono phosphate activated kinase (AMPK) were evaluated at MDS Pharma, Korea. Evaluation of activity against human 11-Hydroxysteroid dehydrogenase-1 was outsourced to University of Edinburg, UK which used a cell based method.

[3] = target: T1, human 11<beta>-Hydroxysteroid dehydrogenase-1 (Homo sapiens, UniProt P28845); assay: 11beta-HSD1 cell based inhibition assay; conditions: concentration not given
T1 construct: University of Edinburgh, UK (outsourced)
T1 sequence (P28845 whole entry): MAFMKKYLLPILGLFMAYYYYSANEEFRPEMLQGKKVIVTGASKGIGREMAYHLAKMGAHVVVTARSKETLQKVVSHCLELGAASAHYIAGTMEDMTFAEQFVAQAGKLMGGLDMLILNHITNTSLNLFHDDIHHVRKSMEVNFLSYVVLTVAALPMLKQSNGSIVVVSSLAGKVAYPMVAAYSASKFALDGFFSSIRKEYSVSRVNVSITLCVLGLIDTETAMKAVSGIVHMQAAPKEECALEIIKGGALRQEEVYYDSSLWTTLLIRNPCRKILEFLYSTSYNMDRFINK
Protocol: as §1

[4] = tested on: panel of membrane receptors, ion channels and enzymes; assay: Screen against a panel of membrane receptors, ion channels and enzymes
db/db mice [5] = assay: Antidiabetic activity in db/db mice, once daily oral dosing; format: in vivo
Protocol: After two weeks of acclimatization, db/db mice were deprived of food for 4h. Their weights were measured and blood was obtained by retro-orbital puncture for the determination of plasma glucose. The animals were randomized into groups (7-10/group) based on body weight and plasma glucose levels. Animals were dosed orally once a day, between 9.00 -10.00am for 15 consecutive days, with either P1736 (150mg/kg) or metformin (150mg/kg) or 0.5% carboxy methyl cellulose (CMC) vehicle. The dose of 150 mg/kg was chosen for once-a-day dosing of P1736, on the basis of its pharmacokinetic profile and to maintain high plasma concentrations. Body weight was measured daily. On days 10 and 15, blood samples were collected at the end of the 4h fasting after drug administration. Plasma samples were analysed for biochemical parameters, by enzymatic methods using autoanalyser 902(Hitachi instruments, Japan). Plasma adiponectin levels were measured using mouse ELISA kits (Millipore Inc. USA).

db/db mice [6] = assay: Dose response experiment in db/db mice, twice daily dosing; format: in vivo
Protocol: The doses were given during 8.00-9.00 am and 5.00-6.00 pm daily. On day 15, blood was collected and plasma samples were analysed as described above.

ob/ob mice [7] = assay: Antidiabetic activity in ob/ob mice; format: in vivo; conditions: for Liver weight: vehicle 4.3 ± 0.2; for Plasma AST: vehicle 468 ± 38; for Plasma ALT: vehicle 740 ± 71
Protocol: After one week of acclimatization, ob/ob mice (8/group) were dosed orally, twice daily for 10 consecutive days, with either P1736 (100 or 200 mg/kg) or vehicle. Rest of the procedure is exactly the same as that used for db/db mice and as described above.
(§2) On day 9, food was withheld for 4 h and blood was collected for the analysis of plasma chemistry and plasma insulin levels. On days 12 and 13, 3-4 animals from each group were sacrificed and soleus muscles were excised. Radiolabelled glucose uptake was measured in the isolated soleus muscles by the method of Zierath and colleagues. Plasma Insulin was estimated using mouse ELISA kit (Linco, USA)

[8] = tested on: soleus muscles of ob/ob mice; assay: Ex vivo muscle glucose uptake in ob/ob mice; conditions: for Glucose Uptake in soleus muscle (% Increase): ex vivo after chronic administration
Protocol: as §2

ob/ob mice [9] = assay: Antidiabetic activity in ob/ob mice; format: in vivo; conditions: 5 mg/kg, 10 days
Wistar rats = assay: Plasma volume in rats (Evans Blue Dye method)
human PPARγ receptor = target: T2, human PPARγ receptor (Homo sapiens, UniProt P37231); assay: PPARγ transactivation luciferase reporter gene assay in HEK-293 cells; conditions: upto 10 μM
T2 sequence (P37231 238-503 limits assumed): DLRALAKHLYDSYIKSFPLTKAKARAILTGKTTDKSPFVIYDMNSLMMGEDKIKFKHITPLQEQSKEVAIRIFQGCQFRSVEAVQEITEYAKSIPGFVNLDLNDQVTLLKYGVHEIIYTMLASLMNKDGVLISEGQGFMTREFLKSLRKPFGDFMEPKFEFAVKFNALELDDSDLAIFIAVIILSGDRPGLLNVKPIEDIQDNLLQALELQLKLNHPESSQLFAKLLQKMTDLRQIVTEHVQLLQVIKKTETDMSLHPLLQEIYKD

GLUT-4 = GLUT-4 translocation in insulin resistant 3T3 adipocytes (immunofluorescence); conditions: 10 µM, 4 days, 200nM insulin stimulated
[10] = 150 mg/kg oral once daily, day 10
[11] = 150 mg/kg oral once daily, day 15

## O=S(=O)(Nc1cnc(Oc2cc3ccccc3cn2)c(Cl)c1)c1ccc(Cl)cc1Cl [P1736]
3T3-L1 cells
  result in adipogenesis screen: positive
[1]; 10 µM compound, 100 nM wortmannin for 30 minutes
  stimulation of glucose uptake after pretreatment with wortmannin: abolished
[1]; 10 µM, 4 days exposure
  increase in glucose uptake compared to insulin resistant vehicle: more than 2 fold
[1]; Adipocyte, dose response, insulin resistant adipocytes, read-out: EC50 of increase in glucose uptake
  EC50: 400 nM
[2]
  activity against AMPK: no significant activity
[3]
  inhibitory activity towards 11<beta>-Hydroxysteroid dehydrogenase-1: 50%
[4]
  activity against panel targets: no significant activity
db/db mice [5]; [10]
  decrease in plasma triglyceride: 30%
  reduction in plasma glucose: 35%
db/db mice [5]; [11]
  decrease in plasma triglyceride: 38%
  reduction in plasma glucose: 35%
db/db mice [5]; 150 mg/kg oral once daily, vehicle 7.5 ± 0.44
  plasma adiponectin levels: 12.4 ± 0.33 µg/mL
db/db mice [5]; 150 mg/kg, 15 days
  effect on body weight: did not affect body weight
db/db mice [5]; 150mg/kg, vehicle 1.8 + 0.10
  Liver weight: 2.1+ 0.10 gm
db/db mice [5]; 150mg/kg, vehicle 91.2 + 12.7
  Plasma ALT: 99.0 + 8.5 U/L
db/db mice [5]; 150mg/kg, vehicle 100.6 + 8.8
  Plasma AST: 84.6 + 2.6 U/L
db/db mice [5]; db/db mice with high initial plasma glucose, 150 mg/kg once daily, 10 days
  reduction of high initial plasma glucose: 23%
db/db mice [6]; 5 mg/kg to 200 mg/kg twice daily, EC50 could not be established
  effect on plasma glucose and triglyceride levels over the dose range: all the doses reduced plasma glucose and triglyceride levels
db/db mice [6]; 5 mg/kg twice daily, 15 days
  weight gain: did not exhibit any tendency towards weight gain
db/db mice [6]; 5 mg/kg twice daily, day 15
  decrease in plasma glucose: 40%
  decrease in plasma triglyceride: 32%
ob/ob mice [7]; 100 mg/kg twice daily, 10 days
  reduction in plasma glucose: 30%
ob/ob mice [7]; 100 mg/kg, 10 days
  lowering of plasma insulin levels: 50%
ob/ob mice [7]; 100mg/kg
  Liver weight: 4.6 ± 0.2 gm
  Plasma AST: 547 ± 50 U/L
  Plasma ALT: 857 ± 72 U/L
ob/ob mice [7]; 200 mg/kg twice daily, 10 days
  reduction in plasma glucose: 32%
ob/ob mice [7]; 200mg/kg
  Liver weight: 4.4 ± 0.3 gm
  Plasma AST: 470 ± 57 U/L
  Plasma ALT: 668 ± 92 U/L
ob/ob mice [7]; ob/ob mice, dose not stated (abstract)
  decrease in glucose: 30-35%
ob/ob mice [7]; upto 200 mg/kg twice daily
  changes in body weight: did not induce adverse changes
[8]; 1.0 mg/kg
  Plasma Glucose (% Reduction): 34%
  Glucose Uptake in soleus muscle (% Increase): 70%
[8]; 1.0 mg/kg, listed as P1736-05
  Glucose Uptake in soleus muscle (% Increase): 70* %
[8]; 5.0 mg/kg
  Plasma Glucose (% Reduction): 35%
  Glucose Uptake in soleus muscle (% Increase): 67%
[8]; 5.0 mg/kg, listed as P1736-05
  Glucose Uptake in soleus muscle (% Increase): 67* %
ob/ob mice [9]
  lowering of plasma insulin levels: 40%
Wistar rats; female rats, 100 mg/kg once daily 28 days, control 35.56 ± 1.46
  normalized plasma volume: 30.91 ± 0.03 mL/kg
Wistar rats; female rats, 300 mg/kg once daily 28 days, control 35.56 ± 1.46
  normalized plasma volume: 33.02 ± 0.28 mL/kg
Wistar rats; male rats, 100 mg/kg once daily 28 days, control 33.44 ± 1.52
  normalized plasma volume: 31.55 ± 0.27 mL/kg
Wistar rats; male rats, 300 mg/kg once daily 28 days, control 33.44 ± 1.52
  normalized plasma volume: 29.15 ± 0.02 mL/kg
Wistar rats; oral, 28 days, male and female normal Wistar rats
  effect on plasma volume or body weights: did not cause significant increase
Human PPARγ receptor
  PPARγ transactivation: no significant transactivation ability
GLUT-4
  GLUT-4 translocation to plasma membrane: induced translocation; also recorded: complete translocation
